Laboratory results taken from the supplement of paper PMC10307832.

Tests used:
Test in all cases: relative viability (nuclei count vs DMSO), 5 days (fraction); higher = more cells survive
NCI-H1734 = system: NCI-H1734
Outline: (§1)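 Nuclei were stained with Hoechst during a one-step fixation (final 0.05% Triton X-100, 1% formaldehyde, 1 ug/ml Hoechst) carried out 5 days after dosing, then counted on 4× images. The cells, lung cancer lines in 1536-well plates, had been dosed by pin tool the day after seeding with one drug alone or a fixed anchor-drug dose plus five library-drug doses (not always all listed) in √10 steps. Relative viability is the nuclei count in treated wells divided by that in vehicle wells, and each value is the median of duplicate plates.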

LC-2-ad = system: LC-2-ad
Outline: as §1

BEN = system: BEN
Outline: as §1

NCI-H2170 = system: NCI-H2170
Outline: as §1

NCI-H1437 = system: NCI-H1437
Outline: as §1

HCC-366 = system: HCC-366
Outline: as §1

NCI-H596 = system: NCI-H596
Outline: as §1

NCI-H647 = system: NCI-H647
Outline: as §1

HCC-44 = system: HCC-44
Outline: as §1

NCI-H1792 = system: NCI-H1792
Outline: as §1

HARA = system: HARA
Outline: as §1

NCI-H1395 = system: NCI-H1395
Outline: as §1

HCC-827 = system: HCC-827
Outline: as §1

NCI-H661 = system: NCI-H661
Outline: as §1

NCI-H2009 = system: NCI-H2009
Outline: as §1

NCI-H2342 = system: NCI-H2342
Outline: as §1

LOU-NH91 = system: LOU-NH91
Outline: as §1

NCI-H2087 = system: NCI-H2087
Outline: as §1

NCI-H2405 = system: NCI-H2405
Outline: as §1

SK-MES-1 = system: SK-MES-1
Outline: as §1

NCI-H1355 = system: NCI-H1355
Outline: as §1

SK-LU-1 = system: SK-LU-1
Outline: as §1

EKVX = system: EKVX
Outline: as §1

NCI-H2228 = system: NCI-H2228
Outline: as §1

SMILES: Clc1ccc(Nc2nnc(Cc3ccncc3)c3ccccc23)cc1 [Vatalanib] + CC(=O)Nc1cccc(-n2c(=O)n(C3CC3)c(=O)c3c(Nc4ccc(I)cc4F)n(C)c(=O)c(C)c32)c1 [Trametinib] (partner 0.02 µM)
- relative viability (NCI-H1734; first compound 0.04 µM): 0.731
- relative viability (NCI-H1734; first compound 0.1265 µM): 0.673
- relative viability (NCI-H1734; first compound 0.4 µM): 0.705
- relative viability (NCI-H1734; first compound 1.265 µM): 0.655
- relative viability (NCI-H1734; first compound 4 µM): 0.684
- relative viability (LC-2-ad; first compound 0.04 µM): 0.97
- relative viability (LC-2-ad; first compound 0.1265 µM): 0.77
- relative viability (LC-2-ad; first compound 0.4 µM): 0.965
- relative viability (LC-2-ad; first compound 1.265 µM): 0.919
- relative viability (LC-2-ad; first compound 4 µM): 0.892
- relative viability (BEN; first compound 0.04 µM): 1.12
- relative viability (BEN; first compound 0.1265 µM): 1.04
- relative viability (BEN; first compound 0.4 µM): 0.976
- relative viability (BEN; first compound 1.265 µM): 1.12
- relative viability (BEN; first compound 4 µM): 0.977
- relative viability (NCI-H2170; first compound 0.04 µM): 0.926
- relative viability (NCI-H2170; first compound 0.1265 µM): 0.857
- relative viability (NCI-H2170; first compound 0.4 µM): 0.856
- relative viability (NCI-H2170; first compound 1.265 µM): 0.892
- relative viability (NCI-H2170; first compound 4 µM): 0.899
- relative viability (NCI-H1437; first compound 0.04 µM): 0.571
- relative viability (NCI-H1437; first compound 0.1265 µM): 0.499
- relative viability (NCI-H1437; first compound 0.4 µM): 0.554
- relative viability (NCI-H1437; first compound 1.265 µM): 0.451
- relative viability (NCI-H1437; first compound 4 µM): 0.486
- relative viability (HCC-366; first compound 0.04 µM): 0.393
- relative viability (HCC-366; first compound 0.1265 µM): 0.294
- relative viability (HCC-366; first compound 0.4 µM): 0.372
- relative viability (HCC-366; first compound 1.265 µM): 0.306
- relative viability (HCC-366; first compound 4 µM): 0.299
- relative viability (NCI-H596; first compound 0.04 µM): 0.782
- relative viability (NCI-H596; first compound 0.1265 µM): 0.88
- relative viability (NCI-H596; first compound 0.4 µM): 0.76
- relative viability (NCI-H596; first compound 1.265 µM): 0.751
- relative viability (NCI-H596; first compound 4 µM): 0.75
- relative viability (NCI-H647; first compound 0.04 µM): 0.538
- relative viability (NCI-H647; first compound 0.1265 µM): 0.614
- relative viability (NCI-H647; first compound 0.4 µM): 0.581
- relative viability (NCI-H647; first compound 1.265 µM): 0.407
- relative viability (NCI-H647; first compound 4 µM): 0.499
- relative viability (HCC-44; first compound 0.04 µM): 1.06
- relative viability (HCC-44; first compound 0.1265 µM): 1.07
- relative viability (HCC-44; first compound 0.4 µM): 0.959
- relative viability (HCC-44; first compound 1.265 µM): 0.994
- relative viability (HCC-44; first compound 4 µM): 1.02
- relative viability (NCI-H1792; first compound 0.04 µM): 0.528
- relative viability (NCI-H1792; first compound 0.1265 µM): 0.395
- relative viability (NCI-H1792; first compound 0.4 µM): 0.394
- relative viability (NCI-H1792; first compound 1.265 µM): 0.399
- relative viability (NCI-H1792; first compound 4 µM): 0.456
- relative viability (HARA; first compound 0.04 µM): 0.687
- relative viability (HARA; first compound 0.1265 µM): 0.728
- relative viability (HARA; first compound 0.4 µM): 0.606
- relative viability (HARA; first compound 1.265 µM): 0.677
- relative viability (HARA; first compound 4 µM): 0.909
- relative viability (NCI-H1395; first compound 0.04 µM): 1.1
- relative viability (NCI-H1395; first compound 0.1265 µM): 1.03
- relative viability (NCI-H1395; first compound 0.4 µM): 1.14
- relative viability (NCI-H1395; first compound 4 µM): 0.974
- relative viability (HCC-827; first compound 0.04 µM): 0.519
- relative viability (HCC-827; first compound 0.1265 µM): 0.578
- relative viability (HCC-827; first compound 1.265 µM): 0.52
- relative viability (HCC-827; first compound 4 µM): 0.522
- relative viability (NCI-H661; first compound 0.04 µM): 0.636
- relative viability (NCI-H661; first compound 0.1265 µM): 0.533
- relative viability (NCI-H661; first compound 0.4 µM): 0.689
- relative viability (NCI-H661; first compound 1.265 µM): 0.59
- relative viability (NCI-H661; first compound 4 µM): 0.574
- relative viability (NCI-H2009; first compound 0.04 µM): 0.32
- relative viability (NCI-H2009; first compound 0.1265 µM): 0.251
- relative viability (NCI-H2009; first compound 0.4 µM): 0.325
- relative viability (NCI-H2009; first compound 1.265 µM): 0.307
- relative viability (NCI-H2009; first compound 4 µM): 0.263
- relative viability (NCI-H2342; first compound 0.04 µM): 0.766
- relative viability (NCI-H2342; first compound 0.1265 µM): 0.794
- relative viability (NCI-H2342; first compound 0.4 µM): 0.737
- relative viability (NCI-H2342; first compound 1.265 µM): 0.747
- relative viability (NCI-H2342; first compound 4 µM): 0.804
- relative viability (LOU-NH91; first compound 0.04 µM): 0.769
- relative viability (LOU-NH91; first compound 0.1265 µM): 0.764
- relative viability (LOU-NH91; first compound 0.4 µM): 0.794
- relative viability (LOU-NH91; first compound 1.265 µM): 0.746
- relative viability (LOU-NH91; first compound 4 µM): 0.765
- relative viability (NCI-H2087; first compound 0.04 µM): 0.245
- relative viability (NCI-H2087; first compound 0.1265 µM): 0.197
- relative viability (NCI-H2087; first compound 0.4 µM): 0.249
- relative viability (NCI-H2087; first compound 1.265 µM): 0.194
- relative viability (NCI-H2087; first compound 4 µM): 0.179
- relative viability (NCI-H2405; first compound 0.04 µM): 0.696
- relative viability (NCI-H2405; first compound 0.1265 µM): 0.568
- relative viability (NCI-H2405; first compound 0.4 µM): 0.683
- relative viability (NCI-H2405; first compound 4 µM): 0.557
- relative viability (SK-MES-1; first compound 0.04 µM): 0.507
- relative viability (SK-MES-1; first compound 0.1265 µM): 0.503
- relative viability (SK-MES-1; first compound 0.4 µM): 0.573
- relative viability (SK-MES-1; first compound 1.265 µM): 0.548
- relative viability (SK-MES-1; first compound 4 µM): 0.507
- relative viability (NCI-H1355; first compound 0.04 µM): 0.443
- relative viability (NCI-H1355; first compound 0.1265 µM): 0.383
- relative viability (NCI-H1355; first compound 0.4 µM): 0.461
- relative viability (NCI-H1355; first compound 1.265 µM): 0.404
- relative viability (NCI-H1355; first compound 4 µM): 0.428
- relative viability (SK-LU-1; first compound 0.04 µM): 0.59
- relative viability (SK-LU-1; first compound 0.1265 µM): 0.54
- relative viability (SK-LU-1; first compound 0.4 µM): 0.666
- relative viability (SK-LU-1; first compound 1.265 µM): 0.533
- relative viability (SK-LU-1; first compound 4 µM): 0.599
- relative viability (EKVX; first compound 0.04 µM): 0.274
- relative viability (EKVX; first compound 0.1265 µM): 0.409
- relative viability (EKVX; first compound 0.4 µM): 0.308
- relative viability (EKVX; first compound 1.265 µM): 0.351
- relative viability (EKVX; first compound 4 µM): 0.39
- relative viability (NCI-H2228; first compound 0.04 µM): 0.542
- relative viability (NCI-H2228; first compound 0.1265 µM): 0.467
- relative viability (NCI-H2228; first compound 0.4 µM): 0.666
- relative viability (NCI-H2228; first compound 1.265 µM): 0.782
- relative viability (NCI-H2228; first compound 4 µM): 0.44
